Laboratory results taken from paper PMC6121230 (International Journal of Molecular Sciences, 2018).

Columns and labels:
Details in all cases: 50 mM Tris pH 8.0; lipid monolayer, interfacial binding (not a 1:1 site)
[1] = test system: (His)6-VpPLD-WT
[2] = test system: VpPLD-(His)6-WT
[3] = test system: VpPLD-(His)6-Δ1-25
[4] = test system: (His)6-VpPLD-WT; remark: listed apart in the source
[5] = test system: (His)6-VpPLD-Δ434-487
[6] = test system: VpPLD-(His)6-Δ1-34
[7] = test system: (His)6-VpPLD-Δ469-487
[8] = test system: (His)6-VpPLD-Δ451-487

Work on `CCCCCCCCCCCCCC(=O)OC[C@H](COP(=O)(O)OCC(O)CO)OC(=O)CCCCCCCCCCCCC` (mixture of isomers) [DMPG, 1,2-Dimyristoyl-sn-glycero-3-phospho-rac-glyceol] yielded a synergy factor a [1] of 0.29 ± 0.03 and an MIP [2] of 26.8 ± 0.9 mN m^-1.

In the case of `CCCCCCCCCCCCCC(=O)OC[C@H](COP(=O)(O)OCCN)OC(=O)CCCCCCCCCCCCC` [DMPE, 1,2-Dimyristoyl-sn-glycero-3-phosphoethanolamine], the MIP [3] is reported as 39.4 ± 6.2 mN m^-1, the MIP [4] is reported as 32.8 ± 3.7 mN m^-1 and the MIP [5] is reported as 45.1 ± 2.8 mN m^-1. For the same molecule, the MIP [2] was 29.8 ± 2.8 mN m^-1, the MIP [6] was 47.8 ± 8.7 mN m^-1 and the MIP [7] was 26.2 ± 2.7 mN m^-1.

Molecule `CCCCCCCCCCCCCC(=O)OC[C@H](COP(=O)([O-])OCC[N+](C)(C)C)OC(=O)CCCCCCCCCCCCC` [DMPC, 1,2-Dimyristoyl-sn-glycero-3-phosphocholine] has an MIP [4] of 29.6 ± 2.6 mN m^-1, an MIP [2] of 37.4 ± 1.3 mN m^-1 and an MIP [7] of 29.8 ± 1.8 mN m^-1. It also gave an MIP [8] of 34.9 ± 3.7 mN m^-1.

`CCCCCCCCCCCCCC(=O)OC[C@H](COP(=O)(O)OC[C@H](N)C(=O)O)OC(=O)CCCCCCCCCCCCC` [DMPS, 1,2-Dimyristoyl-sn-glycero-3-phospho-L-serine] was tested, and the MIP [3] was 30.4 ± 3.2 mN m^-1, the MIP [4] was 34.8 ± 0.6 mN m^-1 and the MIP [5] was 40.4 ± 4.6 mN m^-1. For the same molecule, the MIP [2] was 38.5 ± 2.7 mN m^-1, the MIP [6] was 36.5 ± 2.7 mN m^-1 and the MIP [8] was 36.4 ± 2.1 mN m^-1.
